# From patent US10829478B2, “5-[3-[piperazin-1-yl]-3-oxo-propyl]-imidazolidine-2,4-dione derivatives as ADAMTS 4 and 5 inhibitors for treating e.g. osteoarthritis” (Galapagos NV, priority 2016, dated 2020)
# Molecular target: human ADAMTS-5 (Homo sapiens (Human), UniProt Q9UNA0)
# Assay: hADAMTS-5 TBIS-1 cleavage assay, Protocol 3
# Type: biochemical
# Conditions: 90 min at 37° C., read-out: hADAMTS-5 potency IC50
# Procedure: The reaction is initiated by adding to the assay plate TBIS-1 (10 μL, 4.5 μM, Anaspec) in the same buffer.
# Finally, the fluorescence is read on the Envision (Perkin Elmer) after an incubation of 90 min at 37° C. (Excitation 485 nm, emission 530).
# Chain of human ADAMTS-5 (Q9UNA0 262-930): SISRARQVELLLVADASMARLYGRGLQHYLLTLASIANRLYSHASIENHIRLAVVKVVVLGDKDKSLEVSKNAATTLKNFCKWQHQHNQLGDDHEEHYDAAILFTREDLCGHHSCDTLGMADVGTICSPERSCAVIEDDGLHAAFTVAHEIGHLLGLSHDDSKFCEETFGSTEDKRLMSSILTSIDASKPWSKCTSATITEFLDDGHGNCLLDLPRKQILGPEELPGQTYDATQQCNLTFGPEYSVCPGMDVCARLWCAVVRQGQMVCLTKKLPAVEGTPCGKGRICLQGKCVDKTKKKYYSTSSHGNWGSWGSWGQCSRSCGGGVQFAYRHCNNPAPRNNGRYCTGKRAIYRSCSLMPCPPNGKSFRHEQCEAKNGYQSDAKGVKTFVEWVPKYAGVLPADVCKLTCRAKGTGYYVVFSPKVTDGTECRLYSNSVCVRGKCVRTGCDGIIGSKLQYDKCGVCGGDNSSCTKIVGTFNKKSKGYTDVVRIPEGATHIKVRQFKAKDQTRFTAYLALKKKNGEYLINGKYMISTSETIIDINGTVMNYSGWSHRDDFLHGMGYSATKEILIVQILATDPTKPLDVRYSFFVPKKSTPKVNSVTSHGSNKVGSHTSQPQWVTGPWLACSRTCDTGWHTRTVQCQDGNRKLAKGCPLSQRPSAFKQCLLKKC
row,IC50,SMILES
1,> 100 nM,"COc1cc(N2CCN(C(=O)[C@@H](C)C[C@@]3(C)NC(=O)NC3=O)C[C@@H]2C)c(C)cc1Cl (mixture of isomers) [Cpd 45, 5-[3-[(3S)-4-(4-chloro-5-methoxy-2-methyl-phenyl)-3-methyl-piperazin-1-yl]-2-methyl-3-oxo-propyl]-5-methyl-imidazolidine-2,4-dione]"
2,25 to 50 nM,"COC[C@]1(C[C@H](C)C(=O)N2CCN(c3cc(C)c(Cl)c(OC)c3)[C@@H](C)C2)NC(=O)NC1=O (mixture of isomers) [Cpd 126, 5-[3-[(3S)-4-(4-chloro-3-methoxy-5-methyl-phenyl)-3-methyl-piperazin-1-yl]-2-methyl-3-oxo-propyl]-5-(methoxymethyl)imidazolidine-2,4-dione]"
3,50 to 100 nM,"COc1cc(N2CCN(C(=O)[C@@H](C)C[C@@]3(C)NC(=O)NC3=O)C[C@@H]2C)cc(OC)c1Cl (stereo in doubt) [Cpd 44, 5-[3-[(3S)-4-(4-chloro-3,5-dimethoxy-phenyl)-3-methyl-piperazin-1-yl]-2-methyl-3-oxo-propyl]-5-methyl-imidazolidine-2,4-dione]"
4,> 100 nM,"COc1cc(N2CCN(C(=O)[C@H](C)C[C@@]3(C4CC4)NC(=O)NC3=O)C[C@@H]2C)cc(F)c1F (stereo in doubt) [Cpd 134, 5-cyclopropyl-5-[3-[(3S)-4-(3,4-difluoro-5-methoxy-phenyl)-3-methyl-piperazin-1-yl]-2-methyl-3-oxo-propyl]imidazolidine-2,4-dione]"

# Molecular target: human ADAMTS6 (Homo sapiens (Human), UniProt Q9UKP5)
# Sequence (Q9UKP5 other isoform, or with tags, fused parts or gaps): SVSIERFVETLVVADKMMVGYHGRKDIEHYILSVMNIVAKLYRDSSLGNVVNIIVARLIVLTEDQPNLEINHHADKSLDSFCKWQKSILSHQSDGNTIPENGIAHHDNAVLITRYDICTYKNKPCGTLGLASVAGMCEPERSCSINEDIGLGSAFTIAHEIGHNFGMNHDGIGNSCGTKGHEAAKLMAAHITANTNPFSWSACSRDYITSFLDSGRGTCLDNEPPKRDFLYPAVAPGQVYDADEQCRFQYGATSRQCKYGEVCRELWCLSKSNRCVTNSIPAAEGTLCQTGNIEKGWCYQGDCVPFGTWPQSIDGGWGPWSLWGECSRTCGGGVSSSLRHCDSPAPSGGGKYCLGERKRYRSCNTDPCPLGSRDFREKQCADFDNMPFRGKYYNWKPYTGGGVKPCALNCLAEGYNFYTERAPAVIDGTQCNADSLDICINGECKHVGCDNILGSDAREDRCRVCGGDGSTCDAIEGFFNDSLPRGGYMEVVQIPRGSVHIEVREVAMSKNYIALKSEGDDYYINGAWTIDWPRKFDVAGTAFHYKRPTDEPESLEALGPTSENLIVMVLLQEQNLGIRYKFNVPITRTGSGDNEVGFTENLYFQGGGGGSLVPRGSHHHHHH
# Assay: hADAMTS-6 fluorescent based protease assay (520 MMP FRET substrate XII)
# Type: biochemical
# Conditions: 37° C. for 2 h; read-out: hADAMTS-6 potency IC50
# Procedure: The IC50 value for test compounds can be determined in a fluorescent based protease assay.
# The substrate contains sequence Arg-Pro-Lys-Pro-Tyr-Ala-Nva-Trp-Met-Lys (SEQ ID NO: 7) with attached a fluorescent probe and a quencher. Without ADAMTS6, the emission of the probe is quenched. If the substrate is cleaved by ADAMTS6, the emission of the probe is not quenched anymore. Inhibition of ADAMTS6 activity, will result in a decrease of the signal.
# To perform the assay, 4 μL of a dilution series of compound in water, starting from 20 μM highest concentration, ⅕ dilution, is added to the wells. 2 ng ADAMTS6 enzyme is diluted in 25 mM Tris pH8.0, 0.05% CHAPS, 2.5 mM CaCl2 in a total volume of 26 μL (final concentration 0.73 nM). The reaction is started by addition of 10 μL of 1 μM 520 MMP FRET Substrate XII (final concentration, diluted in same buffer as described above) and the mixture is incubated at 37° C. for 2 h. […] After this incubation, cleavage of the substrate is measured using the Envision (Perkin Elmer, exc485/em530).
row,IC50,SMILES
1,> 100 nM,"COc1cc(N2CCN(C(=O)[C@@H](C)C[C@@]3(C)NC(=O)NC3=O)C[C@@H]2C)c(C)cc1Cl (mixture of isomers) [Cpd 45, 5-[3-[(3S)-4-(4-chloro-5-methoxy-2-methyl-phenyl)-3-methyl-piperazin-1-yl]-2-methyl-3-oxo-propyl]-5-methyl-imidazolidine-2,4-dione]"
2,0.001 to 25 nM,"COC[C@]1(C[C@H](C)C(=O)N2CCN(c3cc(C)c(Cl)c(OC)c3)[C@@H](C)C2)NC(=O)NC1=O (mixture of isomers) [Cpd 126, 5-[3-[(3S)-4-(4-chloro-3-methoxy-5-methyl-phenyl)-3-methyl-piperazin-1-yl]-2-methyl-3-oxo-propyl]-5-(methoxymethyl)imidazolidine-2,4-dione]"
3,0.001 to 25 nM,"COc1cc(N2CCN(C(=O)[C@@H](C)C[C@@]3(C)NC(=O)NC3=O)C[C@@H]2C)cc(OC)c1Cl (stereo in doubt) [Cpd 44, 5-[3-[(3S)-4-(4-chloro-3,5-dimethoxy-phenyl)-3-methyl-piperazin-1-yl]-2-methyl-3-oxo-propyl]-5-methyl-imidazolidine-2,4-dione]"
4,50 to 100 nM,"COc1cc(N2CCN(C(=O)[C@H](C)C[C@@]3(C4CC4)NC(=O)NC3=O)C[C@@H]2C)cc(F)c1F (stereo in doubt) [Cpd 134, 5-cyclopropyl-5-[3-[(3S)-4-(3,4-difluoro-5-methoxy-phenyl)-3-methyl-piperazin-1-yl]-2-methyl-3-oxo-propyl]imidazolidine-2,4-dione]"
5,50 to 100 nM,"COc1cc(N2CCN(C(=O)CC[C@@]3(C)NC(=O)NC3=O)CC2)c(C)cc1F [Cpd 67, (5R)-5-[3-[4-(4-fluoro-5-methoxy-2-methyl-phenyl)piperazin-1-yl]-3-oxo-propyl]-5-methyl-imidazolidine-2,4-dione]"
6,> 100 nM,"COc1c(Cl)cccc1N1CCN(C(=O)CC[C@@]2(C)NC(=O)NC2=O)CC1 [Cpd 68, (5R)-5-[3-[4-(3-chloro-2-methoxy-phenyl)piperazin-1-yl]-3-oxo-propyl]-5-methyl-imidazolidine-2,4-dione]"
7,> 100 nM,"CCc1cc(CC)cc(N2CCN(C(=O)CC[C@@]3(C)NC(=O)NC3=O)CC2)c1 [Cpd 72, (5R)-5-[3-[4-(3,5-diethylphenyl)piperazin-1-yl]-3-oxo-propyl]-5-methyl-imidazolidine-2,4-dione]"
8,> 100 nM,"COc1ccc(Cl)cc1N1CCN(C(=O)CC[C@@]2(C)NC(=O)NC2=O)CC1 [Cpd 77, (5R)-5-[3-[4-(5-chloro-2-methoxy-phenyl)piperazin-1-yl]-3-oxo-propyl]-5-methyl-imidazolidine-2,4-dione]"
9,> 100 nM,"COc1cc(F)ccc1N1CCN(C(=O)CC[C@@]2(C)NC(=O)NC2=O)C[C@@H]1C [Cpd 81, (5R)-5-[3-[(3 S)-4-(4-fluoro-2-methoxy-phenyl)-3-methyl-piperazin-1-yl]-3-oxo-propyl]-5-methyl-imidazolidine-2,4-dione]"
10,> 100 nM,"COc1c(F)cccc1N1CCN(C(=O)CC[C@@]2(C)NC(=O)NC2=O)CC1 [Cpd 82, (5R)-5-[3-[4-(3-fluoro-2-methoxy-phenyl)piperazin-1-yl]-3-oxo-propyl]-5-methyl-imidazolidine-2,4-dione]"
11,> 100 nM,"COc1ccc(F)cc1N1CCN(C(=O)CC[C@@]2(C)NC(=O)NC2=O)CC1 [Cpd 83, (5R)-5-[3-[4-(5-fluoro-2-methoxy-phenyl)piperazin-1-yl]-3-oxo-propyl]-5-methyl-imidazolidine-2,4-dione]"
12,> 100 nM,"COc1c(F)cccc1N1CCN(C(=O)CC[C@@]2(C)NC(=O)NC2=O)C[C@@H]1C [Cpd 84, (5R)-5-[3-[(3 S)-4-(3-fluoro-2-methoxy-phenyl)-3-methyl-piperazin-1-yl]-3-oxo-propyl]-5-methyl-imidazolidine-2,4-dione]"
13,50 to 100 nM,"CC(C)c1cc(N2CCN(C(=O)CC[C@@]3(C)NC(=O)NC3=O)CC2)ccc1Cl [Cpd 87, (5R)-5-[3-[4-(4-chloro-3-isopropyl-phenyl)piperazin-1-yl]-3-oxo-propyl]-5-methyl-imidazolidine-2,4-dione]"
14,25 to 50 nM,"C[C@]1(CCC(=O)N2CCN(c3ccc(Cl)c(OC(F)(F)F)c3)CC2)NC(=O)NC1=O [Cpd 88, (5R)-5-[3-[4-[4-chloro-3-(trifluoromethoxy)phenyl]piperazin-1-yl]-3-oxo-propyl]-5-methyl-imidazolidine-2,4-dione]"
15,0.001 to 25 nM,"COc1cc(Cl)c(Cl)cc1N1CCN(C(=O)CC[C@@]2(C)NC(=O)NC2=O)C[C@@H]1C [Cpd 92, (5R)-5-[3-[(3 S)-4-(4,5-dichloro-2-methoxy-phenyl)-3-methyl-piperazin-1-yl]-3-oxo-propyl]-5-methyl-imidazolidine-2,4-dione]"
16,25 to 50 nM,"COc1cc(N2CCN(C(=O)CC[C@@]3(C)NC(=O)NC3=O)CC2)c(OC)cc1Cl [Cpd 97, (5R)-5-[3-[4-(4-chloro-2,5-dimethoxy-phenyl)piperazin-1-yl]-3-oxo-propyl]-5-methyl-imidazolidine-2,4-dione]"
17,0.001 to 25 nM,"CCc1cc(N2CCN(C(=O)CCC3(CC(=O)O)NC(=O)NC3=O)C[C@@H]2C)ccc1Cl (stereo partly drawn) [Cpd 98, 2-[4-[3-[(3 S)-4-(4-chloro-3-ethyl-phenyl)-3-methyl-piperazin-1-yl]-3-oxo-propyl]-2,5-dioxo-imidazolidin-4-yl]acetic acid]"
18,0.001 to 25 nM,"CCc1cc(N2CCN(C(=O)CCC3(c4cccc(C)n4)NC(=O)NC3=O)C[C@@H]2C)ccc1Cl (stereo partly drawn) [Cpd 100, 5-[3-[(3 S)-4-(4-chloro-3-ethyl-phenyl)-3-methyl-piperazin-1-yl]-3-oxo-propyl]-5-(6-methyl-2-pyridyl)imidazolidine-2,4-dione]"
19,0.001 to 25 nM,"Cc1cccc(C2(CCC(=O)N3CCN(c4ccc(Cl)c(OC(F)(F)F)c4)[C@@H](C)C3)NC(=O)NC2=O)n1 (stereo partly drawn) [Cpd 101, 5-[3-[(3 S)-4-[4-chloro-3-(trifluoromethoxy)phenyl]-3-methyl-piperazin-1-yl]-3-oxo-propyl]-5-(6-methyl-2-pyridyl)imidazolidine-2,4-dione]"
20,> 100 nM,"CCc1cc(N2CCN(C(=O)CC[C@@]3(C)NC(=O)NC3=O)CC2)c(OC)cc1Cl [Cpd 102, (5R)-5-[3-[4-(4-chloro-5-ethyl-2-methoxy-phenyl)piperazin-1-yl]-3-oxo-propyl]-5-methyl-imidazolidine-2,4-dione]"
21,> 100 nM,"CCc1cc(N2CCN(C(=O)CC[C@@]3(C)NC(=O)NC3=O)C[C@@H]2C)c(OC)cc1Cl [Cpd 103, (5R)-5-[3-[(3 S)-4-(4-chloro-5-ethyl-2-methoxy-phenyl)-3-methyl-piperazin-1-yl]-3-oxo-propyl]-5-methyl-imidazolidine-2,4-dione]"
22,0.001 to 25 nM,"COc1cc(N2CCN(C(=O)CC[C@@]3(C)NC(=O)NC3=O)C[C@@H]2C)c(OC)cc1Cl [Cpd 104, (5R)-5-[3-[(3 S)-4-(4-chloro-2,5-dimethoxy-phenyl)-3-methyl-piperazin-1-yl]-3-oxo-propyl]-5-methyl-imidazolidine-2,4-dione]"
23,> 100 nM,"COc1ccc(OC(F)(F)F)c(N2CCN(C(=O)CC[C@@]3(C)NC(=O)NC3=O)C[C@@H]2C)c1 [Cpd 108, (5R)-5-[3-[(3S)-4-[5-methoxy-2-(trifluoromethoxy)phenyl]-3-methyl-piperazin-1-yl]-3-oxo-propyl]-5-methyl-imidazolidine-2,4-dione]"
